Assay results published in US6762185B1, “Compounds useful for treatment of cancer, compositions containing the same, and methods of their use” (Choongwae Pharma Corporation, priority 2002, dated 2004).

Experiments:
[1] = system: caspase-3; experiment: Caspase-3 activation in SW480 cells (Cbz-DEVD-R110 substrate); format: cell-based; conditions: SW480 cells treated 24 hours, dose dependent
Method: FIG. 6. TCF4 compound induces caspase-3 activation in a dose-dependent manner. SW480 cells were treated with TCF4 compound for 24 hours. Whole cell protein extracts were prepared and 100 μg aliquots of protein extracts were incubated with Cbz-DEVD-R110 substrate for 2 hours at 37° C. Relative fluorescence unit (RFU) was obtained by subtracting the unit values of the blank control from the experimental measured values. SW480 cells were treated with TCF4 compound for 24 hours, collected and washed with PBS, and lysed in 100 μl ice cold hypotonic lysis buffer which is commercially available (Promega). 100 μg of the cell extracts were incubated in reaction buffer containing Cbz-DEVD-R110 (caspase-3 substrate: Promega) at 37° C. for 2 hours (FIG. 6). It is clear the FIG. 6 that caspase-3 activity was stimulated by the presence of the TCF4 compound, in a dose dependent manner.

[2] = system: TCF4/β-catenin transcriptional pathway; experiment: TCF4/β-catenin reporter gene assay (pTOPFlash luciferase) in SW480 cells; format: cell-based; conditions: 24 hours treatment, firefly normalized to renilla
Method: The compound having general formula (I) wherein R1 is 2-naphthyl and R2 is phenyl is used for this experiment (it is referred to as ‘TCF4 compound’ hereinafter). Each transfection was performed in duplicate and repeated at least three times. SW480 cells were transfected transiently with 4.0 μg firefly luciferase reporter plasmid (pTOPFlash) and 0.8 μg renilla luciferase reporter plasmid (pRL-null). Firefly luciferase activity was normalized to renilla luciferase activity.
SW480 cells were maintained in DMEM with 10% fetal bovine serum supplemented with non-essential amino acid and antibiotics. Transient transfections into SW480 cells were carried out by Superfect (Qiagen,301307). For TCF4/β-catenin reporter gene assay, 4 μg of pTOPFlash and 0.8 μg of pRL-null were cotransfected. After 24 hours of transfection, SW480 cells were treated with TCF4 compound at varying concentrations. Firefly luciferase and renilla luciferase activities were measured 24 hours after said TCF4 compound treatment, and the firefly luciferase activity was normalized to the renilla luciferase activity (FIG. 1).

[3] = target: T1, CBP (Homo sapiens, UniProt Q92793); experiment: Binding of 14C-TCF4 compound to nuclear extracts of SW480 transfected with CBP or β-catenin; conditions: 14C-labelled compound, nuclear lysate of transfected SW480, 4° C., 18 hours
T1 construct: expressed in transfected cells; host or cells: SW480
Method: FIG. 3. […] SW480 cells were transiently transfected with β-catenin or CBP expression plasmid. 48 hours after transfection, nuclear protein extracts were collected. 14C-Tcf4 was incubated with nuclear lysate.
Nuclear protein extracts from SW480 transfected with CBP expression vector or wild type β-catenin expression vector were collected using NE-PER Nuclear and Cytoplasmic Extraction Reagents (Pierce) and incubated with ^14C-TCF4 compound at 4° C. for 18 hours. Each samples were washed with Sephadex G-25 columns equilibrated with 5 mL of PBB (20 mM HEPES, pH 7.9, 60 mM NaCl, 6 mM MgCl2, 0.5 mM EDTA, 0.1% NP-40, 20% glycerol, 5 mM 2-ME, 1 mM PMSF) and protein samples eluted by centrifugation were transferred to a scintillation vial containing 2 mL of scintillation fluid. Radio activities were counted using scintillation counter (Beckman).

[4] = system: CBP-mediated transcriptional activation; experiment: CBP-mediated transcriptional activation, pTOPFlash with CBP and/or β-catenin cotransfection in SW480 cells; format: cell-based; conditions: SW480 cells cotransfected with pTOPFlash
Method: FIG. 2. […] SW480 cells were cotransfected with 1.1 μg of the pTOPFlash reporter, and 0.8 μg […], in the presence or absence of TCF4 compound and CBP and/or β-catenin, which are present in various concentrations(1.1 to 3.3 μg), is shown to reverse the inhibiting action of TCF4 compound on CBP-mediated transcriptional activation.
In order to determine the inhibitory effect of TCF4 compound on CBP-mediated transcriptional activation, reporter plasmid pTOPFlash (1.1 μg), CBP expression vector (1.1 to 3.3 μg), wild type beta-catenin expression vector (1.1 to 3.3 μg) and pRL-null (0.8 μg) were cotransfected into SW480. Total amount of DNA was adjusted to 6.3 μg. After 24 hours incubation, TCF4 compound was added and cells were washed and luciferase activity was measured. Firefly luciferase activity was normalized to renilla luciferase activity (FIG. 2).

[5] = system: survivin; experiment: Survivin expression in SW480 cells (RT-PCR and Western blot); format: cell-based, human
Method: FIGS. 5A and 5B. Inhibition of survivin expression by TCF4 compound in […]. FIG. 5A. Surviving mRNA (363 bp) level was assessed by RT-PCR in SW480 cell 24 hours after incubation 25 μM TCF4 compound. β-actin mRNA (564 bp) level is shown as an internal control. FIG. 5B. Survivin protein (MW 16,500) level was assessed by Western blots in SW480 using anti-survivin monoclonal antibody after TCF4 incubation with compound for 48 hrs.
Total RNA was isolated from SW480 cells treated with the TCF4 compound using Rneasy midi kit (Qiagen, Valencia, Calif., 75142). One microgram of RNA was used as a template for RT-PCR. The expression of survivin was evaluated with RT-PCR and Western blot. The primer used to detect fragments of the survivin gene was designed from published human sequences (Cancer Res., 2001, 62, 8664-8667). The sequences used were 5′-[…]-3′ and 5′-[…]-3′, which can give an amplified product of 363 bp. The RT-PCR reaction was processed by Access RT-PCR system (Promega A1260). (FIG. 5) Survivin 6E4 Monoclonal antibody (Cell signaling Technology, 2802) was used for Western blot of TCF4 compound treated SW480 cells. (FIG. 5B).

[6] = system: SW480 cells; experiment: Bioassay for the measurement of IC50 against SW480 cells (TOPFlash/pRL-null luciferase); format: cell-based; conditions: Homo sapiens, 24 hrs treatment, firefly and renilla luciferase activities, read-out: IC50 against SW480 cell growth
Method: FIG. 8. Measurement of IC50 of TCF4 compound for SW480 cells. Cell growth inhibition on SW480 cells is measured at various concentrations of TCF4 compound in order to obtain the IC50 value. Specifically, the degree of inhibition in firefly and renilla luciferase activities by TCF4 compound was determined. […] Detailed procedures are the same as disclosed in Example 8.
SW480 cells were transfected with the usage of Superfect™ transfect reagent (Qiagen, 301307). Cells were trypsinized briefly 1 day before transfection and plated on 6 well plate (5×10^5 cells/well) so that they were 50-80% confluent on the day of transfection. Four microgram (TOPFlash) and one microgram (pRL-null) of DNAs were diluted in 150 μl of serum-free medium, and 30 μl of Superfect™ transfect reagent was added. The DNA-Superfect mixture was incubated at room temperature for 15 min, after that 1 ml of 10% FBS DMEM was added to this complex for an additional 3 hr of incubation. While complexes were forming, cells were washed with PBS twice without antibiotics. The DNA-Superfect™ transfect reagent complexes were applied to the cells before incubating at 37° C. at 5% CO2 for 3 h. After incubation, recovery medium with 10% FBS was added to bring the final volume to 1.18 ml. After 3 hr incubation, the cells were harvested and reseeded to 96 well plate (3×10^4 cells/well). […]

[7] = system: SW480 cells; experiment: Combination with 5-FU tested against SW480 cell lines; format: cell-based
Method: It has been known from previous art that 5-FU [Fluorouracil; 5-fluoro-2,4(1H, 3H)-pyrimidinedione] can induce apoptosis in cultured oral cancer cells (D. Tong et al., Oral Oncology 36, 2000 236-241). Further, it is also known that colon cancer has a sensitivity to 5-FU (D. Arango et al., Cancer Research 61, 2001 4910-4915). In the present invention, therefore, the combination of 5-FU having established anti-cancer activity and the compounds of formula (I) of the present invention is prepared and tested against SW480 cell lines. […] Therefore, it is yet another aspect of the present invention to provide a method of treating cancer, which comprises administering to a subject a safe and effective amounts of the compound having formula (I) of claim 1 together with other anti-cancer agent such as 5-Fu.

[8] = system: SW480 cells; experiment: Soft agar cell growth and colony formation assay; format: cell-based; conditions: SW480 cells in soft agar, 8 days
Method: FIG. 7. Cell growth and colony formation assays. SW480 cells were treated with TCF4 compound. The resulting cells are placed in a soft agar plate and incubated at 37° C. in CO2 incubator for 8 days. Number of colonies were counted under microscope. Agar plates were prepared to contain 10% FBS, 2 mM L-glutamine, 0.1 mM non-essential amino acid, 1×pen/strep and 1.6% agarose for bottom layer and DMEM containing 10% FBS, 2 mM L-glutamine, 0.1 mM non-essential amino acid, 1×pen/strep for upper layer. TCF4 compound solution and upper layer solution containing agarose were mixed and SW480 cells were added and solidified. Plates were incubated 37° C. at CO2 incubator for 8 days after solidification at room temperature for 30 min and colonies were counted under microscope (FIG. 7).

T1 sequence (Q92793 whole entry): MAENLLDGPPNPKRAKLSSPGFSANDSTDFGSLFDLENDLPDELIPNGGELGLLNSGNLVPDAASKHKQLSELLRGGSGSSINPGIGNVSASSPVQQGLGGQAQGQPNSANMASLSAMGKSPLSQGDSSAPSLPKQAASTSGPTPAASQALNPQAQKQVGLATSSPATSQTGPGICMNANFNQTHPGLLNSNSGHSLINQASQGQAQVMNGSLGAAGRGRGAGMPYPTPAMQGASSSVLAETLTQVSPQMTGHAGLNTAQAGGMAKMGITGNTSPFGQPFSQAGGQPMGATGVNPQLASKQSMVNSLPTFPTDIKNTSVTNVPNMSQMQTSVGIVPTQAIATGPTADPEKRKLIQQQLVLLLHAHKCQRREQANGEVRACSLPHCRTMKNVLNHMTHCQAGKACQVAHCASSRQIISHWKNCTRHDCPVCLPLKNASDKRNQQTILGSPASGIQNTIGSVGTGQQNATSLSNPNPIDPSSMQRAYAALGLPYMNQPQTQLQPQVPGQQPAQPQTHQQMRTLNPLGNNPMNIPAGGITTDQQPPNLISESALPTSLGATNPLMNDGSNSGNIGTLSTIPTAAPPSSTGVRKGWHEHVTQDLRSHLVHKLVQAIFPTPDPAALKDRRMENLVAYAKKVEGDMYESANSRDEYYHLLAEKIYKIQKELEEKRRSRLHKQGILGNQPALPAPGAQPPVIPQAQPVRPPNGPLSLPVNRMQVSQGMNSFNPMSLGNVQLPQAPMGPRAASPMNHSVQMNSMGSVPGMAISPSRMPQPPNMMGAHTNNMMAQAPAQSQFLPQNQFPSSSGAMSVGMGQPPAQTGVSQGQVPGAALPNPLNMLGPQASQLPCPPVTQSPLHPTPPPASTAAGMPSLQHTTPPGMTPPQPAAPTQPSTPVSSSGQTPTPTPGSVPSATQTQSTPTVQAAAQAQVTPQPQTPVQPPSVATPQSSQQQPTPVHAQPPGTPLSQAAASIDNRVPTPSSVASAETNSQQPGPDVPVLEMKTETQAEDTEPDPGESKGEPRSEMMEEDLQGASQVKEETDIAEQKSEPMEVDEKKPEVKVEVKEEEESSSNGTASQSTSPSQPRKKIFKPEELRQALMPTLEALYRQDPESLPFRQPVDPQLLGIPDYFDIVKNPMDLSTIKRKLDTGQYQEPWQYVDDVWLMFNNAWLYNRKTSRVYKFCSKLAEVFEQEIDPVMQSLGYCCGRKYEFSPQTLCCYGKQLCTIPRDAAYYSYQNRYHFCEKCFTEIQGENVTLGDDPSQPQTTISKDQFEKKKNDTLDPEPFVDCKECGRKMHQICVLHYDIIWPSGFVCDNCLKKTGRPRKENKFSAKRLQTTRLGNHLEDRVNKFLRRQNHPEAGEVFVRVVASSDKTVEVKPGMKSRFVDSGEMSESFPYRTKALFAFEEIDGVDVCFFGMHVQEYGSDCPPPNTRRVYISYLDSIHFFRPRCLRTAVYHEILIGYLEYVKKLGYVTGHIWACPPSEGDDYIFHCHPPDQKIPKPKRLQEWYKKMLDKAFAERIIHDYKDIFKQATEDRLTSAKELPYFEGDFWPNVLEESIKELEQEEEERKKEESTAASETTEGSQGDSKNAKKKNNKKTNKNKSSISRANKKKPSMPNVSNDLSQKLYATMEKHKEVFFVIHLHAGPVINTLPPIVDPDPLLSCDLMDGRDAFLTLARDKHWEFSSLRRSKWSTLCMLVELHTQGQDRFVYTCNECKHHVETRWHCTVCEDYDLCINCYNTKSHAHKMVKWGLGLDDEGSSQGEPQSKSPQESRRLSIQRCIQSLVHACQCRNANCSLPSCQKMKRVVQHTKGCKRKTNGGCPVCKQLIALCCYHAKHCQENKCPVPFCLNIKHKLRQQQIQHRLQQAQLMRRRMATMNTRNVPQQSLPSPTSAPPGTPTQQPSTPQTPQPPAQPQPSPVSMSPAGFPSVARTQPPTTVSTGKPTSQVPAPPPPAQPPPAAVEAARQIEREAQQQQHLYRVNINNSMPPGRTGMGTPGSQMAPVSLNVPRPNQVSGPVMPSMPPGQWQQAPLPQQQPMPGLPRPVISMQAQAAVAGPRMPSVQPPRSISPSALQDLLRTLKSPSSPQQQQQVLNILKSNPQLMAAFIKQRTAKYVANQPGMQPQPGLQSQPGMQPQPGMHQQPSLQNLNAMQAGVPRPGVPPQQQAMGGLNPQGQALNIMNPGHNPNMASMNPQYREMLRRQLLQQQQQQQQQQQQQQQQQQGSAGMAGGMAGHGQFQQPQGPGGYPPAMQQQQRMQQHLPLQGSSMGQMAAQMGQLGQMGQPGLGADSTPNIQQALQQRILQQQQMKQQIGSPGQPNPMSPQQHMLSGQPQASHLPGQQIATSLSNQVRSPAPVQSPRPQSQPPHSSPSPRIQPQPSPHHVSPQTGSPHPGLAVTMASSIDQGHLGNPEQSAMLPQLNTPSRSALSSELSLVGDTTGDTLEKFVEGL

Compound: O=C1[C@H](Cc2ccc(O)cc2)N2C(=O)CCN(C(=O)NCc3ccccc3)[C@H]2CN1Cc1cccc2ccccc12 [TCF4 compound, 6-(4-Hydroxy-benzyl)-8-naphthalen-1-ylmethyl-4-oxo-hexahydro-pyrazino[1,2-α]pyrimidine-1-carboxylic Acid Benzylamide]
- caspase-3 activity [1]: stimulated
- transcription of the TCF4 responsive reporter gene luciferase [2]: inhibits the transcription of the TCF4 responsive reporter gene luciferase in a dose-dependent manner
- binding to CBP [3]: Specific binding
- CBP-mediated transcriptional activation [4]: inhibits CBP-mediated transcriptional activation
- survivin mRNA expression level ([5]; RT-PCR, 25 μM, 24 hours): Inhibits
- survivin protein expression level ([5]; Western blot, 48 hrs): Inhibits
- IC50 [6]: ~8.07 µM
- inhibition of cancer cell growth in combination with 5-FU [7]: remarkable effect for inhibiting cancer cell growth
- cell growth and colony formation [8]: correlation between the dose of TCF4 compound and the inhibition of cell growth
